Values of other authors, collected in patent US20110153027A1, “Drug Delivery System” (Vysera Biomedical Limited, priority 2009, published 2011).

How the values were obtained:
[1] = minimum effective concentration
[2] = compared with cyclosporine

| SMILES | MEC [1] | water solubility [2] |
| --- | --- | --- |
| Sc1ncnc2nc[nH]c12 [6-mercaptopurine] | 1 µg/mL |  |
| Cn1cnc([N+](=O)[O-])c1Sc1ncnc2nc[nH]c12 [Azathioprine] | 1 µg/mL |  |
| O=C(O)c1cn(C2CC2)c2cc(N3CCNCC3)c(F)cc2c1=O [Ciprofloxacin] | 0.2 µg/mL |  |
| Cc1ncc([N+](=O)[O-])n1CCO [Metronidazole] | 8 µg/mL | higher water solubility than cyclosporine |
